This note sets out measurements from patent US6639130B2, “Plant sterol reductases and uses thereof” (The General Hospital Corporation, priority 1996, dated 2003).

The subject of one assay is ell seedlings. The experiment in a line: Exogenous feeding of brassinolide to ell seedlings germinated on agar plates. In kind it is in vivo, Arabidopsis. Conditions: 1 μM in growth medium (agar plates); dark or light. The method, then:
FIGS. 13A-13B are photographs showing that the ell phenotype was not corrected by exogenous feeding of brassinolide (1 μM) in either dark (FIG. 13A) or light (FIG. 13B). From left to right in FIGS. 13A-13B: wild-type; ell; wild-type+brassinolide; and ell+brassinolide.
To determine whether the ell mutant phenotype is corrected by exogenous feeding of brassinolide, we germinated ell seedlings on agar plates containing 1 μM brassinolide or 1 μM 24-epibrassinolide (Li et al., Science 272: 398, 1996). […] Thus, it appears that steroid compounds other than BRs are needed to restore an ell mutant to a normal growth and development phenotype, as reflected by the pleiotropic phenotypes such as stunted roots (FIG. 2) and impaired embryogenesis (FIGS. 7A-7F).

The subject of another assay is wild-type seedlings. The experiment in a line: Treatment of wild-type seedlings with synthetic cytokinin (phenocopy of ell mutant morphology). In kind it is in vivo, Arabidopsis. Conditions: 30 μM; in the dark or light. An excerpt: From left to right in both FIGS. 1A-1B: wild-type plant; wild-type plant+2ip; ell; and ell+2ip.

SMILES strings stand for the structures. “Also recorded” adds a separate entry of the source.

`CC(C)[C@H](C)[C@@H](O)[C@H](O)[C@@H](C)[C@H]1CC[C@H]2[C@@H]3COC(=O)[C@H]4C[C@H](O)[C@H](O)C[C@]4(C)[C@H]3CC[C@]12C` [brassinolide]: in the assay with ell seedlings, the “correction of the ell mutant phenotype by exogenous feeding” value is recorded as “not corrected; also recorded: did not alter the mutant phenotype”.

For `CC(C)=CCNc1ncnc2nc[nH]c12` [2ip, dimethylallylamino-purine], the “ell mutant seedling morphology phenocopied in wild-type seedlings” value with wild-type seedlings is “phenocopied”.

On to `CC(C)[C@@H](C)[C@@H](O)[C@H](O)[C@@H](C)[C@H]1CC[C@H]2[C@@H]3COC(=O)[C@H]4C[C@H](O)[C@H](O)C[C@]4(C)[C@H]3CC[C@]12C` [24-epibrassinolide], for which the “correction of the ell mutant phenotype by exogenous feeding” value in the assay with ell seedlings is on record as “did not alter the mutant phenotype”.
